From patent US8598125B2, “CDCA1 peptide and pharmaceutical agent comprising the same” (Onco Therapy Science, Inc., priority 2007, dated 2013)
Where no end group is shown, it is not given here.

Experiments:
Format in all cases: cell-based
peptide-pulsed T2 cells = assay: 51Cr release assay of peptide-induced human CTLs against peptide-pulsed T2 cells; settings: CTLs from cancer patient donor 1 and healthy donor 1
Text: (§1) Monocyte-derived DC cells were used as antigen-presenting cells for induction of CTLs in response to HLA-presented peptides. DCs were obtained by previously reported in vitro methods (Suda T, et al. Cancer Sci. 2007; Nakahara S, et al. Cancer Res. 2003; 63:4112-8). Briefly, peripheral blood […] (PBMCs) isolated from HLA-A*0201 positive healthy volunteers and NSCLC patients using a Ficoll-Paque solution (GE Healthcare UK, Ltd., Buckinghamshire, UK) were screened for […] CD14 positive populations using MicroBeads (Miltenyi Biotec, Bergisch Gladbach, Germany). […] Six days after the third peptide stimulation on day 25, the antigen-specific CTL response was evaluated by Chromium (Cr) release assay and IFN-γ ELISPOT assay.
(§2) CTLs were co-cultured at various effector cell/target cell ratios with target cells which are various cancer cell lines and T2 cells with or without peptide pulsing, and ^51Cr release assay and IFN-γ ELISPOT assay were conducted using conventional methods (Komori H, et al., Clin. Cancer Res. 2006; 12:2689-2697; Makita M, et al. Clin. Cancer Res. 2002; 8:2626-31; Yokomine K, et al. Cancer Sci. 2007; 98:1930-5). […] Six hours after incubation, 50 μL of the supernatant was collected from each well, and radioactivity was quantified using a gamma counter. […]

[1] = tested on: A549 cells (CDCA1+, HLA-2−); assay: 51Cr release assay of peptide-induced human CTLs against A549; settings: No. 1: cancer patient donor 1 CTLs; No. 4: healthy donor 1 CTLs
Text: as §1, §2

[2] = tested on: PANC1 cells (CDCA1+, HLA-A2+); assay: 51Cr release assay of peptide-induced human CTLs against PANC1; settings: No. 1: cancer patient donor 1 CTLs; No. 4: healthy donor 1 CTLs
Text: as §1, §2

[3] = tested on: COLO201 cells (CDCA1−, HLA-A2+); assay: 51Cr release assay of peptide-induced human CTLs against COLO201; settings: cancer patient donor 1 CTLs
Text: as §1, §2

For KLATAQFKI [No. 4, KLATAQFKI], the “cytotoxic activity against peptide-pulsed T2 cells” value (peptide-pulsed T2 cells) was “showed cytotoxic activity”, the “cytotoxic activity against A549 cells” value [1] was “not” and the “cytotoxic activity against PANC1 cells” value [2] was “showed cytotoxic activity”.
For YMMPVNSEV [No. 1, YMMPVNSEV], the “cytotoxic activity against COLO201 cells” value [3] was “not”, the “cytotoxic activity against peptide-pulsed T2 cells” value (peptide-pulsed T2 cells) was “showed cytotoxic activity” and the “cytotoxic activity against A549 cells” value [1] was “not”. The “cytotoxic activity against PANC1 cells” value [2] was “showed cytotoxic activity”.
